Measured values published in patent US20190125734A1, “COMPOSITION FOR TREATING OR PREVENTING ATOPIC DERMATITIS” (NANOEGG Research Laboratories, Inc., priority 2016, published 2019).
Entries after “also recorded” stand apart in the source; their conditions may differ.

Legend:
[1] = system: mast cells; test: Activity and migration of mast cells (toluidine blue stain of back skin), Example 2; format: in vivo, mouse; settings: severe area; saline group about 40%
From the text: Solifenacin succinate (Tokyo Chemical Industry), acridinium bromide (Wako Pure Chemical) and scopolamine hydrobromide trihydrate (Tokyo Chemical Industry) were used as an inhibitor of a muscarinic acetylcholine receptor. Tubocurarine chloride pentahydrate (Tokyo Chemical Industry), gallamintriethiodide (sigma-aldrich), hexamethonium bromide (sigma-aldrich), dextromethorphan hydrobromide monohydrate (Wako Pure Chemical), and α-bungarotoxin (alomone labs) were used as an inhibitor of a nicotinic acetylcholine receptor. Dimethyl sulfoxide (DMSO, Wako Pure Chemical) saline (Otsuka Pharmaceutical), and purified water were used as solvents.
The back skin of sampled atopic dermatitis model mice was immobilized with neutral formalin and embedded in paraffin. A 4 μm thick tissue segment was prepared therefrom, and mast cells were stained with toluidine blue stain. The stained tissue segment was captured with a microscope. […] The areas of only collagen fiber sites in the tissue segment images were measured (removing areas of the epidermal layer, mast cells, and muscle cells) and compared the mast cell count per unit area to the degree of degranulation.

[2] = system: mice with atopic dermatitis outbreak (NC/Nga, mite antigen Biostir AD); test: Atopic dermatitis score with simultaneous mite antigen induction and test formulation application, Example 5; format: in vivo, mouse; settings: topical 5 times a week for 3 weeks, 12 mM week 1, 24 mM week 2 and thereafter (decamethonium bromide 12 mM, twice a week in last week), induction twice a week
Description: (§1) Induction with mite antigens (twice a week) and application of a test formulation (5 times a week) were simultaneously performed for 3 weeks to analyze the effect of suppressing induction of atopic dermatitis. A test formulation was used at 12 mM in week 1, and at 24 mM in week 2 and thereafter. […] A non treatment group (no induction, no application of test formulation) and solvent applied group (with induction, application of purified water) were prepared as controls.
(1) Antagonist and agonist: hexamethonium bromide, suxamethonium chloride (Maruishi Pharmaceutical), and decamethonium bromide (Tokyo Chemical Industry) were used to compare an antagonist and agonist of a nicotinic acetylcholine receptor. […] (3) Number of tertiary amino groups: Hexamethonium bromide has two tertiary amino groups within the molecule. This was compared to hexyltrimethylammonium bromide (Wako Pure Chemical; hereinafter, referred to as Hexyl-TAB) having one tertiary amino group within the molecule and an alkyl group with 6 carbons. (4) Carbon chain length: Hexamethonium bromide was compared with decamethonium bromide (number of carbons 10) which has a carbon chain length that is longer than hexamethonium bromide (number of carbons 6), and compared with tetramethylammonium bromide (Wako Pure Chemical; number of carbons: 1; hereinafter, referred to as TAB), hexyltrimethylammonium bromide (number of carbons: 6; hereinafter, referred to as Hexyl-TAB), and cetyltrimethylammonium bromide (Wako Pure Chemical; number of carbons: 16; hereinafter, referred to as Cetyl-TAB), which have one tertiary amino group within the molecule and a different carbon chain length in the alkyl group.

[3] = Toxicity observed during application, Example 5; format: in vivo, mouse; settings: topical application to NC/Nga mice, 12 mM week 1
Description: as §1, with “Mice (NC/Nga, 10 week old) were applied with a mite antigen (Biostir AD) twice a week for 4 weeks to prepare mice with atopic dermatitis outbreak as in Example 1. Induction” for “Induction”, “controls. Scoring was performed in the same manner as Example 1.” for “controls.”

[4] = system: skin of atopic dermatitis patients; test: Replica method for goose bump-like skin symptoms, Example 6; format: in vivo, human; settings: 12 mM applied to back part of the neck of atopic dermatitis patients; 5 to 10 minutes after application vs before
Description: Hexamethonium (12 mM) was applied to (back part of) the neck of atopic dermatitis patients to obtain replica images of skin before application and after 5 to 10 minutes from application. The replica images were collected by applying silicon resin (SILFLO) so as to cover the skin with outbreak of atopic dermatitis and peeling of the cured silicon from the skin after 5 minutes. Light was irradiated onto the collected replicas from one direction to compare and examine, and take pictures of, the unevenness of the skin surface.

[5] = system: atopic dermatitis model mice (NC/Nga, mite antigen Biostir AD); test: Therapeutic effect from oral administration, dermatitis scores, Example 8; format: in vivo, mouse; settings: 150 μL of 60 mM once a day, 5 times a week, total 10 times, day 10
Description: 10 week old NC/Nga mice (Charles River Laboratories Japan) were used as atopic dermatitis model animals. A mite antigen (Biostir AD, Wako Pure Chemical) was used to induce dermatitis. Model mice were prepared and scored according to the method described in the package insert of Biostir AD (same as Example 1).
As an inhibitor of a nicotinic acetylcholine receptor, hexamethonium bromide (hereinafter, hexamethonium; sigma-aldrich) was used. The inhibitor was dissolved in purified water and prepared to have a final concentration of 60 mM. Purified water (DW) was used as a negative control.
150 μL of a test formulation was orally administered to atopic dermatitis induced mice once a day, 5 times a week, for a total of 10 times. Dermatitis scores were evaluated after 0 and 10 days from administration. Mean change from day 0 was compared. Atopic dermatitis was induced with mite antigens only on Mondays every week to maintain the symptom.

[6] = system: atopic dermatitis model mice (NC/Nga, mite antigen Biostir AD); test: Evaluation of drug efficacy after inducing dermatitis (AD score, pictures of the back), Example 1; format: in vivo, mouse; settings: female NC/Nga mice, topical 12 mM, days 3 and 7
Description: 10 week old NC/Nga mice (Charles River Laboratories Japan) were used as atopic dermatitis model animals. A mite (Dermatophagoides farina) antigen, i.e., Biostir AD (Wako Pure Chemical), was used to induce dermatitis. Model mice were prepared by the following procedure.
1. The back of mice was shaved. A hair removal cream was used only for the first time. 2. To destroy the skin barrier, 150 μL of 4% SDS was applied and dried for 2 to 3 hours (this step was omitted for the first time). 3. To stimulate immunity, 100 mg of Biostir AD was applied to the back and the left and right auricles of the mice. 4. These steps were performed twice a week.
Scoring was performed according to the method described in the package insert of Biostir AD. Four endpoints were each evaluated as 0 to 3 points. The total score for the endpoints was used as the AD score. The following Table 1 summarizes the scores for each endpoint.
Acridinium bromide (Wako Pure Chemical) and scopolamine hydrobromide trihydrate (Tokyo Chemical Industry) were used as an inhibitor of a muscarinic acetylcholine receptor. Hexamethonium bromide (sigma-aldrich) and dextromethorphan hydrobromide monohydrate (Wako Pure Chemical) were used as an inhibitor of a nicotinic acetylcholine receptor. Dimethyl sulfoxide (DMSO, Wako Pure Chemical), saline (Otsuka Pharmaceutical), and purified water were used as solvents. […]

[7] = system: atopic dermatitis model mice (NC/Nga, mite antigen Biostir AD); test: Drug efficacy with dermatitis induction in parallel (AD score, pictures of the back), Example 3; format: in vivo, mouse; settings: male NC/Nga mice, topical 12 mM, days 3, 7, 11
Description: Atopic dermatitis model mice were prepared and scored in the same manner as Example 1. The same test formulations as those in Example 1 were used.
Male NC/Nga mice (Charles River Laboratories Japan) induced to have atopic dermatitis were used. A test formulation was applied to the back once a day, 5 days a week (Monday to Friday), for a total of 10 times. 100 μL of the test formulation was applied to the back, and 25 μL was applied to each of the left and right auricles. The back was shaved prior to administration on Monday and Thursday to evaluate dermatitis scores. Atopic dermatitis was then induced only on Mondays every week to maintain dermatitis. Mice were euthanized after 11 days from the initial administration, and then the skin tissue was sampled.

Compound | atopic dermatitis score (mean change) relative to solvent administered group (DW) [2] | further results
COc1cc2c3cc1Oc1cc(ccc1O)C[C@@H]1c4c(cc(OC)c(O)c4Oc4ccc(cc4)C[C@@H]3N(C)CC2)CC[N+]1(C)C [tubocurarine, Tubocurarine chloride pentahydrate] |  | ratio of degranulated mast cells to all mast cells [1]: about 33%
CCCCCCCCCCCCCCCC[N+](C)(C)C.[Br-] [Cetyl-TAB, Cetyltrimethylammonium bromide] | exacerbating action | 
CCCCCC[N+](C)(C)C.[Br-] [Hexyl-TAB, Hexyltrimethylammonium Bromide] | effect of suppressing atopic dermatitis, although slightly weaker than hexamethonium bromide; also recorded: effect of suppressing atopic dermatitis | 
C[N+](C)(C)CCCCCCCCCC[N+](C)(C)C [decamethonium bromide, Decamethonium Bromide] | reduce atopic dermatitis scores | atopic dermatitis score (mean change) relative to solvent administered group (DW) ([2]; listed as Decamethonium bromide): action to exacerbate atopic dermatitis was confirmed; toxicity [3]: strong toxicity
NCCCCCCN [HMDA, Hexamethylenediamine] | An effect of suppression was not found | 
C[N+](C)(C)CCOC(=O)CCC(=O)OCC[N+](C)(C)C [Suxamethonium bromide, suxamethonium chloride] | reduce atopic dermatitis scores | 
C[N+](C)(C)CCCCCC[N+](C)(C)C.[Br-].[Br-] [hexamethonium bromide, Hexamethonium Bromide] | elevation in atopic dermatitis scores was suppressed | degree of protrusion of skin pores (replica images) [4]: degree of protrusion of skin pores has subsided to be less goose bump-like; improvement in dermatitis scores (mean change from day 0) [5]: Improvement in the dermatitis scores was observed; therapeutic effect (AD scores and ΔAD scores) [6]: relatively high therapeutic effect; therapeutic effect (AD scores and ΔAD scores) [7]: relative high therapeutic effect
Tetramethylammonium Bromide [TAB] | effect of suppressing atopic dermatitis | 
